For orientation: melting point means the temperature of the solid-liquid transition. Regarding `CC(C(=O)O)c1ccccc1F` (configuration not stated), the melting point is 47 to 49 °C. For `COC(=O)c1ccc(COc2ccc(C=O)cc2OC)cc1` the value was 129 to 131 °C; for `Nc1cccc(CS(=O)(=O)C2CCCCC2)c1`, 106 to 108 °C; for `Nc1ccc(S(=O)(=O)CCO)cc1`, 106 to 108 °C.

Turning to `Fc1ccc(-n2nccc2Br)cc1`, the melting point lay in the range of 73 to 75 °C. The value for `Cn1ncc2c1CCCC2=O` was 89 to 91 °C. Compound `O=C(O)c1ccc(CN2CCCCC2=O)cc1` yielded a melting point of 181 to 183 °C.

Turning to `COc1cc(OC)c2c(-c3ccccc3)cc(S)nc2c1`, the melting point lay within 230 to 232 °C. As for `Nc1ccc(CCN2CCOC2=O)cc1`, the melting point lay within 192 to 194 °C. `CCC(C)n1ncc2c(C(=O)O)cc(C)nc21` (configuration not stated) showed a melting point of 148 to 150 °C. Take `Cc1ccc(NC(=O)C(Cl)c2ccccc2)cc1` (configuration not stated): the melting point is 143 to 147 °C. `CC(NC(N)=S)c1ccc(Cl)cc1Cl` (configuration not stated) came in with a melting point of 164 to 166 °C. Regarding `CCC(c1ccccc1)c1nnc(N)s1` (configuration not stated), the melting point lay within 184 to 186 °C.

`COc1ccc(-c2noc(CCl)n2)c(OC)c1` returned a melting point of 76 to 80 °C. `C=CCOc1ccc(C(=O)c2ccccc2)c(O)c1` showed a melting point of 67 to 70 °C. `Clc1ccc(C2CNCCO2)cc1` (configuration not stated) yielded a melting point of 55 to 57 °C.

On to `O=C(O)c1ccc2c(c1)[nH]c(=O)n2C1CCCC1`, for which the melting point was 315 to 317 °C. For the compound `O=C1OCCc2cc3c(=O)[nH]c(=O)[nH]c3nc21`, the melting point lay within 380 to 382 °C.

With `Nc1ccc(NC(=O)Oc2ccccc2)cc1`, the melting point lay in the range of 135 to 137 °C. Consider `Fc1ccc(CBr)c2ncccc12`, for which the melting point was in the range of 94 to 96 °C.

`CN(C)c1nc(=NN)cc[nH]1`: the melting point lay within 144 to 146 °C. With `Cc1cccc(C(=O)Nc2ccc(O)cc2)c1`, the melting point was in the range of 158 to 160 °C. The value for `OCCn1ncc2ccccc21` was 48 to 50 °C; that for `c1ccc2sc(NCC3CCCO3)nc2c1` (configuration not stated) was 130 to 132 °C; that for `CN(C)CCN=C=S` was 35 to 37 °C.

In turn, `O=[N+]([O-])c1cnc2c(c1)CCC2` showed a melting point of 85 to 87 °C. The compound `Nc1ccc(Br)c(Cl)c1[N+](=O)[O-]` displayed a melting point of 106 to 108 °C. Consider `Nc1cc(-c2ccc(Br)s2)n[nH]1`, for which the melting point lay within 141 to 143 °C.

With `NS(=O)(=O)c1ccnc(Cl)c1`, the melting point is 134 to 136 °C. `O=C1NC(=O)C2(CCSC2)N1` (configuration not stated) had a melting point of 243 to 245 °C. With `O=c1[nH]nc(-c2ccc(F)cc2)c2ccccc12`, the melting point was in the range of 270 to 272 °C.

Consider `O=C(O)c1cc([N+](=O)[O-])c2nsnc2c1`, for which the melting point fell in the range of 199 to 201 °C. For `CCOC(=O)CNc1ccc(F)cc1`, the melting point lay within 73 to 77 °C. In the case of `NCc1cc2c(cc1OC(F)F)OCO2`, the melting point is 39 to 41 °C. On to `O=C1CC(c2ccccc2)C(=O)O1` (configuration not stated), for which the melting point is 51 to 55 °C.

On to `O=C(O)CCCOc1ccc(S(=O)(=O)Cl)cc1Cl`, for which the melting point was 134 to 136 °C. For `Oc1ccc(Oc2ccc(C(F)(F)F)cn2)cc1` the value was 90 to 92 °C; for `Fc1ccccc1Cc1nnc(S)o1`, 134 to 136 °C. Compound `CCc1cc2c(CCl)cc(=O)oc2cc1O` gave a melting point of 216 to 218 °C. `CC(=O)c1c(C)nsc1N`: the melting point lay in the range of 183 to 185 °C.

As to `O=Cc1cc(Br)c2c(c1)OCO2`, the melting point fell in the range of 117 to 119 °C. For the compound `CCC(CC(=O)O)c1ccccc1` (configuration not stated), the melting point is 59 to 61 °C.

Turning to `Clc1cncc(N2CCOCC2)n1`, the melting point was in the range of 114 to 116 °C. `Nc1cc(CC2CCCCC2)n[nH]1` had a melting point of 72 to 74 °C. `Nc1ccc2c(c1)CCN2C(=O)c1cccnc1` returned a melting point of 181 to 183 °C. In turn, `O=C(O)CCC(=O)c1cccc(F)c1` showed a melting point of 94 to 96 °C.

The compound `OC1CCN(c2cncc(Cl)n2)C1` (configuration not stated) yielded a melting point of 80 to 82 °C. `CC(C(=O)O)n1nnnc1C(C)(C)C` (configuration not stated) registered a melting point of 171 to 173 °C.

On to `O=C(Nc1sc2c(c1C(=O)O)CCCC2)c1cccnc1`, for which the melting point is 239 to 241 °C.

`Cc1ccc(NC(=O)CN(C)C(=O)CCl)cc1` came in with a melting point of 145 to 147 °C. As for `COc1ccc(N)cc1NS(C)(=O)=O`, the melting point was 125 to 127 °C. Take `Nc1nc2ccc(F)cn2n1`: the melting point lay within 166 to 168 °C. With `CNS(=O)(=O)CC1CCCN1` (configuration not stated), the melting point lay within 91 to 93 °C. For `COC(=O)c1cc2nc(Cl)ccc2n1C`, the melting point was 134 to 136 °C. Turning to `CC(C(=O)O)N1CCCCC1=O` (configuration not stated), the melting point lay in the range of 134 to 136 °C. In turn, `N#Cc1cccnc1-n1cccn1` returned a melting point of 114 to 116 °C. In turn, `CNC1CCS(=O)(=O)c2ccc(Br)cc21` (configuration not stated) displayed a melting point of 108 to 110 °C. `CCn1nc(N)cc1C1CC1` showed a melting point of 111 to 113 °C.

In the case of `CNS(=O)(=O)c1cc(C(=O)O)ccc1OC`, the melting point fell in the range of 221 to 223 °C. The compound `O=C(O)c1c(F)cc(OC(F)F)cc1F` yielded a melting point of 106 to 108 °C. The compound `CS(=O)(=O)c1ccccc1F` came in with a melting point of 49 to 53 °C. The value for `COCCc1noc(-c2cc(Cl)ccc2N)n1` was 93 to 95 °C. Consider `COCCNc1ccc(C#N)cc1`, for which the melting point lay within 66 to 68 °C.

Regarding `COc1cc(C=O)cc(Br)c1OCC(=O)N(C)C`, the melting point is 62 to 64 °C.

`O=C(O)c1cccnc1Nc1cccc(F)c1` had a melting point of 202 to 204 °C. In turn, `O=C(CCl)Nc1ccc(S(=O)(=O)N2CCOCC2)cc1` had a melting point of 145 to 147 °C. `Cn1cc(S(=O)(=O)N2CCCCC2)cc1C(=O)O`: the melting point fell in the range of 236 to 238 °C. For `CCS(=O)(=O)c1ccc(F)c(C(=O)O)c1` the value was 129 to 131 °C. Compound `CCc1csc(-n2cc(C(=O)O)cn2)n1` gave a melting point of 159 to 161 °C. For `CS(=O)(=O)Cc1cccc(S(=O)(=O)Cl)c1` the value was 142 to 144 °C; for `COc1cncc(CCC(=O)O)c1`, 102 to 104 °C. `O=C(O)c1cn(C2CCCCC2)nn1`: the melting point lay within 163 to 165 °C. The value for `CC(Cl)C(=O)Nc1ccnn1C(C)C` (configuration not stated) was 69 to 71 °C. Regarding `OCCOc1ccccc1C(F)(F)F`, the melting point lay in the range of 74 to 76 °C.

As to `COc1ccc2cc(-c3nn(-c4ccccc4)cc3C=O)ccc2c1`, the melting point fell in the range of 164 to 166 °C. Regarding `O=C(O)c1ccc(-c2cccc3ccccc23)s1`, the melting point lay within 249 to 251 °C. `O=C(O)C1CCN(C(=O)Nc2ccccc2)CC1` yielded a melting point of 178 to 183 °C. For the compound `O=C1C=CC(=O)N1c1ccccc1Sc1ccc(Cl)cc1`, the melting point fell in the range of 54 to 56 °C. The compound `Cc1nc(CCC(=O)O)oc1-c1ccccc1` returned a melting point of 162 to 164 °C.

Take `CCCNC(=O)c1cccc(O)c1`: the melting point lay in the range of 68 to 70 °C. `O=C(Nc1cccc([N+](=O)[O-])c1)OCC(F)(F)F` registered a melting point of 98 to 100 °C. For `O=S(=O)(CCN1CCNCC1)c1ccc(Br)cc1`, the melting point was 99 to 101 °C.

Compound `CC(C)Cc1ccc(C(=O)CBr)cc1` came in with a melting point of 37 to 39 °C. As for `Cn1c(C(=O)O)c(Cl)c2cc(Br)ccc21`, the melting point was 250 to 252 °C. `Cc1nn(CCO)c(N)c1C`: the melting point fell in the range of 129 to 131 °C. In turn, `O=S(=O)(Cl)c1ccccc1-c1ccccc1` showed a melting point of 94 to 96 °C. Compound `CC(C)NC(=O)CSc1ccccc1C(=O)O` came in with a melting point of 181 to 185 °C.

As to `CCCCn1c(N)c(NCC)c(=O)[nH]c1=O`, the melting point fell in the range of 285 to 286 °C. For `Brc1cnc2ncnn2c1` the value was 184 to 186 °C; for `O=C(c1cc(Cl)c(Cl)[nH]1)C(Cl)(Cl)Cl`, 129 to 131 °C; for `CC(C)(C)OC(=O)N1CCC(I)CC1`, 44 to 46 °C. In the case of `O=C1CCCc2c1[nH]c1ccc(Br)cc21`, the melting point is 189 to 191 °C.

Compound `CCc1nc(-c2ccc(C(=O)O)cc2)n[nH]1` displayed a melting point of 229 to 231 °C. In the case of `CCOC(=O)c1c(N)sc(C)c1CC`, the melting point lay in the range of 45 to 47 °C. Regarding `CC(=O)c1cc2nc(C)ccc2o1`, the melting point lay in the range of 119 to 121 °C. In turn, `Cn1cc(CC(=O)O)c2ccccc21` displayed a melting point of 126 to 128 °C. Compound `Nc1nnc(NS(=O)(=O)c2ccccc2)[nH]1` displayed a melting point of 303 to 305 °C. Compound `Cc1oc(-c2ccsc2)nc1CCl` had a melting point of 101 to 103 °C. Regarding `N#Cc1cnn(-c2nccs2)c1N`, the melting point was 165 to 167 °C.

The compound `CNC(C(=O)O)c1cc(F)c(F)c(F)c1` (configuration not stated) gave a melting point of 247 to 249 °C. In turn, `N#Cc1cc(Cl)nc2ccc([N+](=O)[O-])cc12` had a melting point of 173 to 175 °C. In turn, `CC(=O)Nc1ccc(S(=O)(=O)N2CCC(=O)CC2)cc1` showed a melting point of 145 to 147 °C. Compound `COCCn1cc(C(=O)O)c2ccccc21` returned a melting point of 123 to 125 °C. Regarding `Cc1cc(Br)cc(C=O)c1O`, the melting point was 68 to 70 °C. With `Nc1cccc(S(=O)(=O)NCc2ccco2)c1`, the melting point was in the range of 83 to 85 °C. `NCc1ccnc(-n2cccn2)c1` returned a melting point of 44 to 46 °C. For `CN(C)CCC(=O)O` the value was 130 to 132 °C; for `NS(=O)(=O)c1cc(C(=O)O)cc([N+](=O)[O-])c1Cl`, 143 to 147 °C. On to `Cc1ccccc1C(=O)NC1CCN(C(=O)CCl)CC1`, for which the melting point lay in the range of 126 to 128 °C. For `O=S(=O)(c1ccc(O)cc1)N1CCCCC1` the value was 130 to 132 °C; for `Cc1cc(NC(=O)C(Br)C(C)C)no1` (configuration not stated), 96 to 98 °C; for `Cc1cc(Br)ccc1NC(=O)CCN`, 77 to 79 °C. In turn, `O=C(O)CN1C(=O)c2ccccc2S1(=O)=O` yielded a melting point of 218 to 220 °C. The compound `CC(=O)NC1CCCN(C(=O)CCl)C1` (configuration not stated) came in with a melting point of 110 to 112 °C.

In the case of `Brc1cccn2cnnc12`, the melting point was 184 to 186 °C. The value for `O=C(O)C1CCc2c(Cl)cccc21` (configuration not stated) was 111 to 113 °C. As for `CC(C)(C)Oc1ccc(C(=O)O)cc1`, the melting point is 139 to 141 °C. Compound `Cc1nc(S)c(C#N)cc1C(=O)Nc1ccccc1` displayed a melting point of 201 to 203 °C. The value for `O=C(O)c1ccc(-c2cccs2)[nH]c1=O` was 289 to 291 °C; that for `Cc1cc(C)n(-c2ccc(N)cc2F)n1` was 124 to 126 °C. Regarding `Cc1cc(C)n(C(C)C(=O)Nc2ccc(N)cc2Cl)n1` (configuration not stated), the melting point fell in the range of 198 to 200 °C. `COC(=O)c1coc(-c2cccc(C#N)c2)n1` returned a melting point of 183 to 185 °C.
